Experimental data: US20190070140A1, “COMPOSITION COMPRISING PROTECTIN DX AS ACTIVE INGREDIENT FOR PREVENTING OR TREATING HYPERLIPIDEMIA OR FATTY LIVER DISEASE” (Solvit P&F, priority 2017, published 2019)

Key:
HFD diet mouse = assay: Hepatic steatosis in HFD diet mouse: H&E and Oil-Red-O staining, TG analysis kit; format: in vivo; details: HFD mice, PDX i.p. 1 μg/mice/day for 8 weeks
Experimental: (§1) The present study has received the approval of the Institutional Animal Review Committee (Institutional Animal Care and Use Committee in Korea University, Seoul, Korea). The animal experiment was conducted according to the Guide for Care and Use of Laboratory Animals (NH publication, 8th Ed., 2011). A control group and a group of male C57BL/6J(B6) mice at 8 weeks of age were subjected to a normal diet (ND, Brogaarden, Gentofte, Denmark) and a high fat diet (HFD, Research Diets, New Brunswick, N.J., USA) for 8 weeks, respectively. The HFD (high fat diet) group was provided with intra-peritoneal injection of PDX for 8 weeks (1 μg/mice/day). An ethanol injection group was used as a control group.
(§2) HepG2 cells and a cut section of the liver in a mouse were stained by Oil-Red-O staining method, in order to determine cellular triglyceride such as triglyceride, that is, TG. The liver cells were fixed with 10% formalin for 40 minutes, and then stained with Oil-Red-O solution (Sigma) at 37° C. for 1 hour. A content of Oil-Red-O stained TG was quantified by adding isopropanol to each of the samples. The mixture was gently stirred at 25° C. for 8 minutes. Lastly, 100 μl of isopropanol-extracted sample was analyzed by a spectrophotometer at 510 nm.
Total lipids were extracted using a mixture of 2:1 chloroform:methanol (2:1, v/v). An organic layer was dissolved in 60% methanol immediately after drying the same. The extracted TG was measured by a colormetric TG analysis kit according to instructions of the manufacturer (Biovision, Milpitas, Calif., USA).
The present inventors have assessed PDX effects upon lipid accumulation in a mouse. For this purpose, a liver cut section from a mouse was subjected to histological assay and western-blot assay through H&E staining and Oil-Red-O staining, while TG accumulation was measured using a TG analysis kit.

FOXO1 = assay: Western-blot assay of FOXO1 acetylation in HepG2 cells (immuno-precipitation); format: cell-based, Human; details: 0 to 2 μM PDX, 24 hours, FIG. 3B
Experimental: After collecting HepG2 cells, protein was extracted from the cells with a buffer (PRO-PREF; Intron Biotechnology, Seoul, Korea) at 4° C. for 1 hour. A protein sample (35 μg) was applied to 12% SDS-PAGE, transferred to a nitrocellulose film (Amersham Bioscience, Westborough, Mass., USA), detected with a primary antibody, followed by probing with a secondary antibody and another secondary antibody conjugated with horseradish […] (Santa Cruz Biotechnology). The sample was detected by ECL kit. Whole protein of HepG2 cell was extracted using an immune-precipitation buffer (IP buffer: 50 mM Tris-HCl, pH 7.8, 150 mM NaCl, 1% IGEPAL CA630) and then diluted to a concentration of 1 mg/mL. A polyclonal antibody to FOXO1 (Santa Cruz Biotechnology) diluted 1:150 was added to the mixture and the sample was incubated at 4° C. overnight. After incubation, each of the samples was provided with 50 μL of a protein A/G-Sepharose bead suspension (Santa Cruz Biotechnology), followed by gently mixing the same at 4° C. for 1 hour. The treated samples were subjected to centrifugation at 12,000 rpm for 30 seconds; and the beads were washed in IP buffer three times. The isolated beads were suspended again in 1×SDS-PAGE loading buffer, heated at 95° C. for 5 minutes, followed by vortexing and flash-centrifugation. […]

adiponectin = assay: Adiponectin level in blood serum of HFD mice; format: in vivo, mouse; details: PDX i.p. 1 μg/mice/day for 8 weeks, FIG. 5E
Experimental: as §1

SREBP1, FAS and SCD1 = assay: Western-blot assay of adipogenesis-related genes in palmitate-treated HepG2 cells; format: cell-based, Human
Experimental: (§3) Human liver cells, that is, HepG2 cells (ATCC, Manassas, Va., USA) were cultured in high-glucose Dulbecco's modified eagle medium (DMEM, Invitrogen, Carlsbad, Calif., USA), which includes 10% fetal bovine serum (FBS, Invitrogen), 100 units/mL of penicillin and 100 μg/ml of streptomycin. The cells were incubated at 37° C. under a condition of 5% CO2.
(§4) Mycoplasma was not detected in HepG2 cells. PDX (Cayman Chemical, Ann Arbor, Mich., USA) was dissolved in ethanol. Sodium palmitate (Sigma, St. Louis, Mo., USA) was mixed with 2% BSA (fatty acid free level; Sigma) in DMEM. […] In all experiments, the cells were treated with palmitate-BSA and PDX for 24 hours, while 2% BSA-ethanol was used as a control group.
After collecting HepG2 cells, protein was extracted from the cells with a buffer (PRO-PREF; Intron Biotechnology, Seoul, Korea) at 4° C. for 1 hour. A protein sample (35 μg) was applied to 12% SDS-PAGE, transferred to a nitrocellulose film (Amersham Bioscience, Westborough, Mass., USA), detected with a primary antibody, followed by probing with a secondary antibody and another secondary antibody conjugated with horseradish […] (Santa Cruz Biotechnology). The sample was detected by ECL kit.
Under 70% comfluency, 0 to 20 nmol/L […] (si)RNA oligonucleotide to ORP150 purchased from Santa Cruz Biotechnology was transfected to inhibit gene expression. Scramble siRNA was used as a control group. 2 or 4 μg of pCMV3-ORP150 (Sino Biological, Beijing, China) was transiently transfected, leading to over-expression of ORP150. pCMV3 empty-vector was used as a control group. According to instruction of the manufacturer, transfection was executed using lipofectamine 2000 (Invitrogen).
The present inventors have executed western-blot assay of SREBP1 expression in HepG2 cells that were treated with 200 μM palmitate and/or with 0 to 4 μg of ORP150 for 24 hours.

HepG2 cells = assay: Palmitate-induced TG accumulation in HepG2 cells, Oil-Red-O staining with isopropyl alcohol extraction; format: cell-based, Human
Experimental: as §3, §4, §2
In the presence of 200 μM palmitate and PDX (0 to 2 μm), HepG2 cells were subjected to Oil-Red-O staining for 24 hours, while TG accumulation was quantified by isopropyl alcohol extraction.
Further, the present inventors have executed Oil-Red-O staining with respect to palmitate-treated HepG2 cells for 24 hours. TG accumulation was quantified by extraction using isopropyl alcohol.

Structure (SMILES): CC/C=C\C[C@H](O)/C=C/C=C\C=C\[C@@H](O)C/C=C\C/C=C\CCC(=O)O [PDX, 10S,17S-dihydroxy-docosa-4Z,7Z,11E,13Z,15E,19Z-hexaeonic acid]
- intracellular fat deposit rate (stained liver cut section) (HFD diet mouse; compared to HFD diet group, FIG. 5A left): decrease
- accumulation of triglyceride in the liver (HFD diet mouse; vs HFD, FIG. 5A): considerably reduced
- hepatic fibrosis (stained liver cut section) (HFD diet mouse; FIG. 5A left): very little hepatic fibrosis
- PDX effects of reducing FOXO1 acetylation (FOXO1; HepG2 cells transfected with AMPK siRNA): inhibited
- FOXO1 acetylation (FOXO1; HepG2 cells, scramble siRNA): reduced depending upon PDX concentration
- level of adiponectin in blood serum (adiponectin): increased
- expression of adipogenesis-related genes including SREBP1, FAS and SCD1 (SREBP1, FAS and SCD1; 24 hours, FIG. 1B): inhibited
- expression of adipogenesis-related genes SREBP1, FAS and SCD1 (SREBP1, FAS and SCD1; scramble siRNA, PDX administration, FIG. 2C): inhibited
- PDX effects of inhibiting the expression of adipogenesis-related genes (SREBP1, FAS and SCD1; silencing ORP150, FIG. 2C): significantly reduced
- palmitate-induced TG accumulation (HepG2 cells; 200 μM palmitate, PDX 0 to 2 μm, 24 hours, FIG. 1A): inhibited
- TG accumulation inhibitory effects of PDX (HepG2 cells; palmitate, silencing ORP150, FIG. 2B): reduced
- palmitate-induced TG accumulation (HepG2 cells; scramble siRNA, PDX administration, FIG. 2B): inhibited
